Assay results from PubChem BioAssay (NCI).
Values joined by “and” are separate entries in the source; they are usually repeats but may differ in a detail not shown here. Equal values may be shown once.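 Compound exposure: 48 hours, 5 concentrations, 96-well plates. At the GI50, growth is halved. TGI denotes the concentration required for complete inhibition of growth.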

How the values were obtained:
Assay in all cases: DTP human tumour cell line panel, 48 h
[1] = system: KM12 colon
[2] = system: OVCAR-5 ovarian
[3] = system: SF-539 CNS
[4] = system: SF-268 CNS
[5] = system: HS 578T breast
[6] = system: SK-MEL-2 melanoma
[7] = system: BT-549 breast
[8] = system: LOX IMVI melanoma
[9] = system: UACC-257 melanoma
[10] = system: UO-31 renal

| Structure (SMILES) | GI50 [1] [µM] | TGI [1] | GI50 [2] [µM] | TGI [2] | GI50 [3] [µM] | TGI [3] | GI50 [4] [µM] | TGI [4] [µM] | GI50 [5] [µM] | TGI [5] | GI50 [6] [µM] | TGI [6] [µM] | GI50 [7] [µM] | TGI [7] [µM] | GI50 [8] [µM] | TGI [8] | GI50 [9] [µM] | TGI [9] | GI50 [10] [µM] | TGI [10] |
| --- | --- | --- | --- | --- | --- | --- | --- | --- | --- | --- | --- | --- | --- | --- | --- | --- | --- | --- | --- | --- |
| Oc1ccc(C(c2ccc(O)cc2)c2ccc(Br)cn2)cc1 | 0.454 | 18.9 µM | 13.7 | > 71 µM | 5.28 | 27.6 µM | 21.5 | > 91 | 0.242 | 0.593 µM | 1.69 | 21 | 0.26 | 0.788 | 0.282 | 0.895 µM | 17.4 | 61.5 µM | 6.14 | 40.7 µM |
| c1ccc(CCc2cccnc2)nc1 |  | > 100 µM |  | > 100 µM |  | > 100 µM |  | > 100 |  | > 100 µM |  | > 100 |  | > 100 |  | > 100 µM |  | > 100 µM |  | > 100 µM |
| COC1C(N)C(OC2C(Oc3cccc4c(O)c5c(=O)oc6ccc(C)c7c(=O)oc(c34)c5c67)OC(C)C(O)C2(C)O)OC(C)C1O (configuration not stated) |  | 0.366 µM |  | 1.45 µM |  | 0.208 µM |  | 0.104 |  | 0.886 µM |  | 0.0378 |  | 0.214 |  | 0.28 µM |  | 0.277 µM |  | 0.82 µM |
| N#CCCN1C/C(=C/c2ccc(Cl)cc2)C(=O)/C(=C/c2ccc(Cl)cc2)C1 | 0.275 | 0.841 µM | 2.07 | 4.7 µM | 1.32 | 2.74 µM | 1.51 | 3.09 | 2.9 | 12.8 µM | 2.19 | 4.88 | 1.24 | 2.65 | 0.303 | 1.13 µM | 2.05 | 4.38 µM | 1.39 | 2.77 µM |
| COc1ncnc(NS(=O)(=O)c2ccc(N=C3C(=O)N(CN4CCN(c5c(F)cc6c(=O)c(C(=O)O)cn(C7CC7)c6c5OC)CC4C)c4ccc(Br)cc43)cc2)c1OC (configuration not stated) | 4.02 | 15.9 µM | 5 | > 50 µM | 7.53 | 22.1 µM | 5.58 | > 50 | 12.1 | > 50 µM | 20.5 | > 50 | 6.57 | 19.9 | 1.22 | 31.4 µM | 16.9 | > 50 µM | > 50 | > 50 µM |
| COc1ccc(NC(=O)C2CCC(CNS(=O)(=O)c3ccccc3)CC2)cc1OC (configuration not stated) | > 100 | > 100 µM | > 100 | > 100 µM | > 100 | > 100 µM | 74.2 | > 100 | 76.5 | > 100 µM | > 100 | > 100 | > 100 | > 100 | > 100 | > 100 µM | > 100 | > 100 µM | > 100 | > 100 µM |
| Cc1cc(N=Nc2ccccc2C)ccc1N | 7.37 | 23.2 µM and 21.5 µM | 15 | 41.3 µM and 37.6 µM |  | 12.1 µM and 11.6 µM | 4.36 | 33.6 | 13.3 | 32.1 µM and 45.9 µM |  | 33.5 |  | 23.2 | 13.9 | 25 µM and 28.9 µM | 20.2 | 38 µM and 44.9 µM | 0.874 | 13.2 µM and 11.3 µM |
| O=C(/C=C/c1cccc(O)c1)c1cccc(-n2cc(-c3ccccc3)[nH]c2=O)c1 | 1.78 | 3.46 µM | 3.86 | 11.9 µM | 1.97 | 3.84 µM | 3.66 | 12.3 | 5.7 | 44.6 µM | 6.23 | 24.7 | 3.57 | 9.79 | 1.81 | 3.44 µM | 8.89 | 21.8 µM | 1.99 | 7.02 µM |
| Oc1c(I)cc(I)c2cccnc12 | 4.69 | > 100 µM | 3.57 | 24.6 µM | 4.16 | 23.5 µM | 5.09 | 48.3 | 7.24 | > 100 µM | 8.82 | 52.4 | 0.833 | 33.9 | 5.13 | 89.2 µM | 3.53 | 35.5 µM | 2.17 | 21.4 µM |
| c1ccc2cc(-c3n(Cc4ccc5ccccc5n4)c4ccccc4[n+]3Cc3ccc4ccccc4n3)ccc2c1 | 0.321 | 1.21 µM | 0.368 | 1.47 µM | 0.39 | 1.43 µM | 0.332 | 1.42 | 0.343 | 1.7 µM | 0.283 | 1.01 | 0.316 | 1.25 | 0.259 | 0.837 µM | 0.275 | 1.04 µM | 1.34 | 2.66 µM |
| OCCNC1c2cc(Cl)ccc2-c2c(Cl)cc(Cl)cc21 (configuration not stated) |  | > 100 µM |  | > 100 µM |  | > 100 µM |  | > 100 |  | > 100 µM |  | 45.4 |  | > 100 |  | > 100 µM |  | > 100 µM |  | > 100 µM |
| OC(C#Cc1ccccc1)(c1ccccc1)c1ccccc1 |  | 78.4 µM |  | > 100 µM |  | > 100 µM |  | 54.9 |  | > 100 µM |  | 55.4 |  | > 100 |  | 38 µM |  | > 100 µM |  | > 100 µM |
| COC1=C(OC)C(=O)C(SC/C=C(\C)CCCC(C)CCCC(C)CCCC(C)C)=CC1=O (configuration not stated) | 0.934 | > 87.9 µM | 0.564 | > 89.7 µM | 1.41 | > 92.2 µM | 1.98 | > 100 | 0.709 | > 48.4 µM | 0.802 | 4.24 | 0.993 | 10.2 | 0.488 | > 100 µM | 2.71 | > 100 µM | 1.24 | > 27.2 µM |
| N#CC1=C(/N=C/c2ccccc2)Oc2c(ccc3ccccc23)C1c1ccccc1 (configuration not stated) | 0.46 | > 100 µM | 2.13 | > 100 µM | 0.335 | 2.06 µM | 1.02 | > 100 | 0.377 | > 100 µM | 1.41 | > 100 | 0.951 | > 24.5 | 0.559 | > 100 µM | > 100 | > 100 µM | 0.452 | > 100 µM |
| C[N+](C)(C)CC1CCCC1=O (configuration not stated) |  | 20.6 µM |  | 14.8 µM |  | 6.05 µM |  | 20.8 |  | 16.6 µM |  | 12.2 |  | 2.32 |  | 2.33 µM |  | 13.3 µM |  | 8.79 µM |
| O=C(O)Cc1cccnc1 |  | > 100 µM |  | > 100 µM |  | > 100 µM |  | > 100 |  | > 100 µM |  | > 100 |  | > 100 |  | > 100 µM |  | > 100 µM |  | > 100 µM |
| CSc1nc2sc3c(c2c(=O)n1-c1ccc(C(C)C)cc1)CCC(=O)C3 | 1.9 | 3.95 µM | 2.71 | 6.58 µM | 2.05 | 4.1 µM | 2.18 | 5.2 | 2.96 | 9.64 µM | 2.5 | 5.77 | 2.94 | 8.36 | 1.77 | 3.27 µM | 3.21 | 9.81 µM | 1.57 | 3.26 µM |
| Nc1nc(Nc2ccccc2SSc2ccccc2Nc2nc(N)nc(C(Cl)(Cl)Cl)n2)nc(C(Cl)(Cl)Cl)n1 | 4.05 | 28.9 µM | 4.75 | 18.7 µM | 11.2 | 24.7 µM | 3.1 | 13.8 | 5.44 | > 100 µM | 13.2 | 33.9 | 3.34 | 35.7 | 1.68 | 3.13 µM | 11.7 | 92.9 µM | 1.56 | 3 µM |
| Cc1cc(C#Cc2ccc(C(C)(C)C)cc2)ccc1-n1c(/C=C/c2ccc(O)cc2O)nc2ccccc2c1=O | 3.33 | 10.8 µM | 4.25 | 16.4 µM | 4.37 | 16.5 µM | 4.82 | 18 | 2.2 | 5.87 µM | 3.52 | 13.4 | 8.6 | 33.1 | 1.49 | 2.87 µM | 6.92 | 20.4 µM | 2.63 | 15.5 µM |
